Test results as given in patent US20260315452A1, “PROTEASE INHIBITORS AND USES THEREOF” (priority 2023, published 2026).

Legend:
[1] = target: SARS-CoV-2 3CLpro (Severe acute respiratory syndrome coronavirus 2, UniProt P0DTD1); assay: biochemical; settings: inhibition of SARS-CoV-2 3CLpro; 15 nM 3CLpro, 25 μM fluorogenic substrate, 37° C.; read-out: Inhibitory Activity (IC50)
[2] = Plasma protein binding (PPB) by equilibrium dialysis; format: in vitro ADME; settings: human and mouse plasma, 4 hours, 37° C., versus Ref-2
Description: The binding of compounds Ref-2, 86, 97, 98 and 170 to human and mouse plasma were measured using equilibrium dialysis. A loading matrix was prepared by diluting of a 400 μM stock of each of the compounds in DMSO by the plasma matrix. To prepare the time zero (To) samples to be used for recovery determination, 50 μL of the loading matrix were transferred in triplicate to the sample collection plate, immediately matched with opposite blank buffer to obtain a final volume of 100 μL of 1:1 matrix/dialysis buffer (v/v) in each well, followed by the addition of 500 μL of stop solution (200 ng/mL of tolbutamide, 200 ng/mL of labetalol, and 50 ng/mL of metformin in acetonitrile) and then stored at 2-8° C. pending further processes along with other post-dialysis samples. To load the dialysis device, 150 μL of the loading matrix and 150 μL of the dialysis buffer were transferred to the donor side and the receiver side of each well, respectively. The dialysis plate was placed in a humidified incubator at 37° C. with 5% CO2 on a shaking platform that rotated slowly (about 100 rpm) for 4 hours, then 50 μL of samples were taken from both the buffer side and the matrix side, and transferred into new 96-well plates. Each sample was mixed with an equal volume of opposite blank buffer (or matrix) to reach a final volume of 100 μL, followed by the addition of 500 µL of stop solution. The mixture was vortexed and centrifuged at 4000 rpm for about 20 minutes, then […] of the supernatant of each sample was removed for LC-MS/MS analysis. The single blank samples were prepared by transferring 50 μL of blank matrix to a 96 well plate and adding 50 μL of blank PBS buffer to each well. The blank plasma must match the species of plasma used in the plasma side of the well. Then the matrix-matched samples were further processed by adding 500 μL of stop solution, following the same sample processing method as the dialysis samples. The % Unbound, % Bound and % Recovery were calculated using the following equations: […]
in which F is the analyte concentration or peak area ratio of analyte/internal standard on the buffer (receiver) side of the membrane, T is the analyte concentration or peak area ratio of analyte/internal standard on the matrix (donor) side of the membrane, and T0 is the analyte concentration or the peak area ratio of analyte/internal standard in the loading matrix sample at time zero.

[3] = tested on: CYP1A2, CYP2C9, CYP2C19, CYP2D6 and CYP3A4; assay: CYP inhibition evaluation in human liver microsomes; format: in vitro ADME; settings: CYP1A2, 2C9, 2C19, 2D6, 3A4, up to 50 μM
Description: 20 μL of the substrate solutions of CYP1A2, CYP2C9, CYP2C19, CYP2D6 and CYP3A4 were each mixed with […] of the test compounds (final concentrations: 50 μM, 15 μM, 5 μM, 1.5 μM, 0.5 μM, 0.15 μM, 0.05 μM, 0 μM), followed by the addition of 158 μL of the HLM (Human liver microsome) working solution. Each of the mixtures was incubated at 37° C. for 10 minutes, and then mixed with 20 μL of NADPH cofactor, followed by incubation at 37° C. for additional 10 minutes. The reactions were terminated by adding 400 μL cold stop solution (200 ng/mL Tolbutamide and Labetalol in ACN). The samples are centrifuged at 4000 rpm for 20 minutes to precipitate protein. Next, 200 μL of the supernatant of each sample was transferred to 100 μL HPLC water and shaken for 10 minutes, and then analyzed by LC/MS/MS.

[4] = tested on: SARS-CoV-2; assay: Anti-SARS-CoV-2 activity in A549 cells expressing the human ACE2 receptor (inhibition of SARS-CoV-2 replication); format: cell-based; settings: for EC50: Severe acute respiratory syndrome coronavirus 2, A549-ACE2, 24 h, read-out: Antiviral Activity (EC50)

SMILES: CNC(=O)c1cc(Cl)cc([N+](=O)[O-])c1N[C@H]1CN(C(=O)c2cncc3ccn(C)c23)CCC1(F)F [Compound 86, (S)-5-chloro-2-((4,4-difluoro-1-(1-methyl-1H-pyrrolo [3,2-c]pyridine-7-carbonyl)piperidin-3-yl)amino)-N-methyl-3-nitrobenzamide]
- IC50 [1]: < 0.1 µM
- free PPB ratio in comparison with compound Ref-2 [2]: better free PPB ratios

SMILES: CNC(=O)c1cc(Cl)cc([N+](=O)[O-])c1N[C@H]1CN(C(=O)c2cncc3ccncc23)CCC1(F)F [Compound 97, (S)-5-chloro-2-((4,4-difluoro-1-(2,6-naphthyridine-4-carbonyl)piperidin-3-yl)amino)-N-methyl-3-nitrobenzamide]
- effect on different CYP isoforms [3]: little effect on different CYP isoforms
- IC50 [1]: < 0.1 µM
- free PPB ratio in comparison with compound Ref-2 [2]: better free PPB ratios

SMILES: C[C@H](NC(=O)c1cc(Br)cc([N+](=O)[O-])c1N[C@@H]1COCC[C@@H]1NC(=O)c1cncc2ccccc12)C(F)(F)F [Compound 135, N-((3S, 4S)-3-((4-bromo-2-nitro-6-(((S)-1,1,1-trifluoropropan-2-yl)carbamoyl)phenyl)amino)tetrahydro-2H-pyran-4-yl)isoquinoline-4-carboxamide]
- IC50 [1]: < 0.1 µM
- EC50 [4]: < 0.1 µM

SMILES: O=C(c1cc(Br)cc([N+](=O)[O-])c1N[C@H]1CN(C(=O)c2cncc3ccccc23)CCC1(F)F)N1CC(O)C1 [Compound 139, (S)-(5-bromo-2-((4,4-difluoro-1-(isoquinoline-4-carbonyl)piperidin-3-yl)amino)-3-nitrophenyl)(3-hydroxyazetidin-1-yl)methanone]
- IC50 [1]: < 0.1 µM
- EC50 [4]: < 0.1 µM

SMILES: O=C(N[C@@H]1CCOC1)c1cc(Cl)cc([N+](=O)[O-])c1N[C@H]1CN(C(=O)c2cncc3ccccc23)CCC1(F)F [Compound 142, 5-chloro-2-(((S)-4,4-difluoro-1-(isoquinoline-4-carbonyl)piperidin-3-yl)amino)-3-nitro-N-((R)-tetrahydrofuran-3-yl)benzamide]
- IC50 [1]: < 0.1 µM
- EC50 [4]: < 0.1 µM

SMILES: O=C(c1cc(Cl)cc([N+](=O)[O-])c1N[C@H]1CN(C(=O)c2cncc3ccccc23)CCC1(F)F)N1CC(F)(F)C1 [Compound 143, (S)-(5-chloro-2-((4,4-difluoro-1-(isoquinoline-4-carbonyl)piperidin-3-yl)amino)-3-nitrophenyl)(3,3-difluoroazetidin-1-yl)methanone]
- IC50 [1]: < 0.1 µM
- EC50 [4]: < 0.1 µM

SMILES: O=C(NC1CC(F)(F)C1)c1cc(Br)cc(C(F)(F)F)c1N[C@H]1CN(C(=O)c2cncc3ccccc23)CCC1(F)F [Compound 144, (S)-5-bromo-2-((4,4-difluoro-1-(isoquinoline-4-carbonyl)piperidin-3-yl)amino)-N-(3,3-difluorocyclobutyl)-3-(trifluoromethyl)benzamide]
- IC50 [1]: < 0.1 µM
- EC50 [4]: < 0.1 µM

SMILES: O=C(NC1CC(F)(F)C1)c1cc(Cl)cc(C(F)(F)F)c1N[C@@H]1COCC[C@@H]1NC(=O)c1cncc2ccccc12 [Compound 145, N-((3S, 4S)-3-((4-chloro-2-((3,3-difluorocyclobutyl)carbamoyl)-6-(trifluoromethyl)phenyl)amino)tetrahydro-2H-pyran-4-yl)isoquinoline-4-carboxamide]
- IC50 [1]: 0.1 to 1 µM
- EC50 [4]: 0.1 to 1 µM

SMILES: CNC(=O)c1cc(Cl)cc(C(F)(F)F)c1N[C@@H]1COCC[C@@H]1NC(=O)c1cncc2ccccc12 [Compound 146, N-((3S, 4S)-3-((4-chloro-2-(methylcarbamoyl)-6-(trifluoromethyl)phenyl)amino)tetrahydro-2H-pyran-4-yl)isoquinoline-4-carboxamide]
- IC50 [1]: 0.1 to 1 µM
- EC50 [4]: 0.1 to 1 µM

SMILES: O=C(NC1CC1)c1cc(Br)cc([N+](=O)[O-])c1N[C@H]1CN(C(=O)c2cncc3ccccc23)CCC1(F)F [Compound 147, (S)-5-bromo-N-cyclopropyl-2-((4,4-difluoro-1-(isoquinoline-4-carbonyl)piperidin-3-yl)amino)-3-nitrobenzamide]
- IC50 [1]: < 0.1 µM
- EC50 [4]: < 0.1 µM

SMILES: O=C(N[C@H]1CCOC1)c1cc(Br)cc([N+](=O)[O-])c1N[C@H]1CN(C(=O)c2cncc3ccccc23)CCC1(F)F [Compound 149, 5-bromo-2-(((S)-4,4-difluoro-1-(isoquinoline-4-carbonyl)piperidin-3-yl)amino)-3-nitro-N-((S)-tetrahydrofuran-3-yl)benzamide]
- IC50 [1]: < 0.1 µM
- EC50 [4]: < 0.1 µM

SMILES: CN(C)C(=O)c1cc(Br)cc([N+](=O)[O-])c1N[C@H]1CN(C(=O)c2cncc3ccccc23)CCC1(F)F [Compound 151, (S)-5-bromo-2-((4,4-difluoro-1-(isoquinoline-4-carbonyl)piperidin-3-yl)amino)-N, N-dimethyl-3-nitrobenzamide]
- IC50 [1]: < 0.1 µM
- antiviral potency in A549 cells in comparison with compound Ref-2 ([4]; A549 cells, versus Ref-2 (FIG. 7)): better antiviral potency
- EC50 [4]: < 0.1 µM

SMILES: CC(C)(O)CNC(=O)c1cc(Br)cc([N+](=O)[O-])c1N[C@H]1CN(C(=O)c2cncc3ccccc23)CCC1(F)F [Compound 154, (S)-5-bromo-2-((4,4-difluoro-1-(isoquinoline-4-carbonyl)piperidin-3-yl)amino)-N-(2-hydroxy-2-methylpropyl)-3-nitrobenzamide]
- IC50 [1]: < 0.1 µM
- EC50 [4]: < 0.1 µM

SMILES: Cn1cc(NC(=O)c2cc(Br)cc([N+](=O)[O-])c2N[C@H]2CN(C(=O)c3cncc4ccccc34)CCC2(F)F)cn1 [Compound 155, (S)-5-bromo-2-((4,4-difluoro-1-(isoquinoline-4-carbonyl)piperidin-3-yl)amino)-N-(1-methyl-1H-pyrazol-4-yl)-3-nitrobenzamide]
- IC50 [1]: < 0.1 µM
- EC50 [4]: < 0.1 µM

SMILES: C=CCNC(=O)c1cc(Br)cc([N+](=O)[O-])c1N[C@H]1CN(C(=O)c2cncc3ccccc23)CCC1(F)F [Compound 156, (S)-N-ally1-5-bromo-2-((4,4-difluoro-1-(isoquinoline-4-carbonyl)piperidin-3-yl)amino)-3-nitrobenzamide]
- IC50 [1]: < 0.1 µM
- EC50 [4]: < 0.1 µM

SMILES: CC1(NC(=O)c2cc(Br)cc([N+](=O)[O-])c2N[C@H]2CN(C(=O)c3cncc4ccccc34)CCC2(F)F)CC1 [Compound 157, (S)-5-bromo-2-((4,4-difluoro-1-(isoquinoline-4-carbonyl)piperidin-3-yl)amino)-N-(1-methylcyclopropyl)-3-nitrobenzamide]
- IC50 [1]: < 0.1 µM
- EC50 [4]: < 0.1 µM

SMILES: O=C(NC1CC(F)(F)C1)c1cc(Cl)cc([N+](=O)[O-])c1N[C@H]1CN(C(=O)c2cncc3ccccc23)CCC1(F)F [Compound 158, (S)-5-chloro-2-((4,4-difluoro-1-(isoquinoline-4-carbonyl)piperidin-3-yl)amino)-N-(3,3-difluorocyclobutyl)-3-nitrobenzamide]
- IC50 [1]: < 0.1 µM
- EC50 [4]: < 0.1 µM

SMILES: CNC(=O)c1cc(Cl)cc([N+](=O)[O-])c1N[C@H]1CN(C(=O)c2cncc3cccnc23)CC[C@@H]1F [Compound 170, 5-chloro-2-(((3S, 4S)-4-fluoro-1-(1,6-naphthyridine-8-carbonyl)piperidin-3-yl)amino)-N-methyl-3-nitrobenzamide]
- effect on different CYP isoforms [3]: little effect on different CYP isoforms
- IC50 [1]: < 0.1 µM
- free PPB ratio in comparison with compound Ref-2 [2]: better free PPB ratios
